Data on three compounds can be found in patent publication US10913781B2, “Pepducin design and use” (Tufts Medical Center, Inc., priority 2011, dated 2021).

Peptide text beside a SMILES is read from it. * marks the point of attachment. Palmitoyl = CCCCCCCCCCCCCCCC(=O)*

In assay [1] the target is T1, PAR1 (Homo sapiens, UniProt P25116).
T1 sequence (P25116 22-425): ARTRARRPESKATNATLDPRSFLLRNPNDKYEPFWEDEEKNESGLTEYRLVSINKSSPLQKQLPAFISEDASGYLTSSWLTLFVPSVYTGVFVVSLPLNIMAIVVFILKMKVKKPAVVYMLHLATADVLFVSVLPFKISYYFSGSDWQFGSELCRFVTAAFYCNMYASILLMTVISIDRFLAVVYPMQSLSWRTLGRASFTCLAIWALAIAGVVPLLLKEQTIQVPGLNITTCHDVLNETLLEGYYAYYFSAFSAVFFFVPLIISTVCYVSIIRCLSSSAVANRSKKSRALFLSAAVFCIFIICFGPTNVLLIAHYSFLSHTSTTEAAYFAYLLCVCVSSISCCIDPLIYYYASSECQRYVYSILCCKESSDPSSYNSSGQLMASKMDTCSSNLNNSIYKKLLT
The experiment in a line: Calcium flux in SW620 cells stably transfected with PAR1, TFLLRN stimulus. Particulars: 30 μM TFLLRN. The class given is cell-based. Here is the method:
(§1) (A) PAR2 antagonist pepducins P2pal-18S and P2pal-14GQ inhibit calcium flux induced by PAR2 (SLIGRL) (SEQ ID NO:4) but not PAR1 (TFLLRN) (SEQ ID NO:2) agonists. SW620 cells were stably transfected with PAR1 and pretreated for 1 min with various concentrations of P2pal-18S or P2pal-14GQ and then stimulated with 30 μM PAR agonist. […] Cells were stimulated with 1 μM TFLLRN (SEQ ID NO:2), 1 μM SLIGRL (SEQ ID NO:4) or 100 μM AYPGKF (SEQ ID NO:5) and [^3H]-InsP formation measured over 30 min. (C) SW620 cells were treated with the indicated concentrations of P2pal-18S or P2pal-14GQ in the upper well of an 8-μm pore Boyden chamber and allowed to migrate for 18 h towards 10 μM of the PAR2 specific agonist SLIGRL in the lower chamber. The migration to RPMI/0.1% FBS represents random migration. (D) Migration of HEK cells transiently transfected with PAR2 (wild-type, WT), or PAR2-R36A/PAR2-RQ toward chemotactic gradients of 30 nM trypsin in the absence or presence of the indicated concentration of P2pal-18S for 18 h in a transwell apparatus ([…]). Data (n=2-4) are mean±SEM. *, P<0.05 and **, P<0.005.
(Calcium assays in cells follow changes in intracellular calcium, usually with a dye or a luminescent sensor.)

Assay [2] has as its target T2, PAR2 (Homo sapiens, UniProt P55085). Put plainly: Calcium flux screen for PAR2 pepducin agonist and antagonist activity in SW620 cells. The format is cell-based. Set-up: SW620 colon adenocarcinoma cells that endogenously express PAR2; endogenous in cells; host or cells: SW620 (in A7 the SW620 cells were additionally stably transfected with PAR1).
Target sequence in this assay (P55085 26-397): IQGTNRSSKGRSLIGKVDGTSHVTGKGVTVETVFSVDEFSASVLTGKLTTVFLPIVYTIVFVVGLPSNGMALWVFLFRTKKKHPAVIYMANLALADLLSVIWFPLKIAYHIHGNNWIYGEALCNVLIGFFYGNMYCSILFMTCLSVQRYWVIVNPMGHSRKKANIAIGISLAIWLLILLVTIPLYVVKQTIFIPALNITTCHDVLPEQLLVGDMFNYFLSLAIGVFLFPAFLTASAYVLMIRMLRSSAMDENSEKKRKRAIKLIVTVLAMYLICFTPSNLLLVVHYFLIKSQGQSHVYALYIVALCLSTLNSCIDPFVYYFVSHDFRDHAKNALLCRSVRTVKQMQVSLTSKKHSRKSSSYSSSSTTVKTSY
Method: (§2) (A) Agonist and antagonist activity of third intracellular (i3) loop PAR2 pepducins (structure shown on top) using calcium flux assays with SW620 colon adenocarcinoma cells that endogenously express PAR2. Each column of three calcium flux traces corresponds to the i3 pepducin sequence shown above. The top row is the agonist activity of 3-4 μM pepducin and the middle row is the agonist activity of 14-15 μM pepducin. […] Final concentration of DMSO vehicle was 0.2%. […] (C) Agonist activity for each pepducin from (A) is reported as initial velocity of calcium flux at 4 μM pepducin (†), or at 14-15 μM pepducin (‡).
In assay [3] the target is T2, PAR2. The experiment in a line: Agonist | (%)^†. Particulars: 4 µM. Set-up: SW620 colon adenocarcinoma cells that endogenously express PAR2; endogenous in cells; host or cells: SW620 (in A7 the SW620 cells were additionally stably transfected with PAR1).
Target sequence in this assay (P55085 26-397 limits assumed): as the sequence (P55085 26-397) above
Method: as §2
The next assay deals with T3, PAR4 (Homo sapiens, UniProt Q96RI0).
T3 sequence (Q96RI0 18-385): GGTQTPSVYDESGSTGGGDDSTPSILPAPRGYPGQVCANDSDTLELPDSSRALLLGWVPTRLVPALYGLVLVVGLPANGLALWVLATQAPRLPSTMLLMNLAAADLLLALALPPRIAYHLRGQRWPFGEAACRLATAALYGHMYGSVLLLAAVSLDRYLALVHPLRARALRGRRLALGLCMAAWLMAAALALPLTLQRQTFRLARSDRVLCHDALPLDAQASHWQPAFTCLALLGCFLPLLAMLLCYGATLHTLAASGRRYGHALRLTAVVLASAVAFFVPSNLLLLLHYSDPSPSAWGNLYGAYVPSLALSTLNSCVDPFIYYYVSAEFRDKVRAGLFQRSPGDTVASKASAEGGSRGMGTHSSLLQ
The experiment in a line: [3H]-InsP formation in COS7 cells transfected with PAR4. The class given is cell-based. The arrangement: expressed in transfected cells; host or cells: COS7. The note with it: 100 μM AYPGKF, 30 min. The procedure: as §1

The target of assay [4] is T2, PAR2. The experiment in a line: Agonist | (%)^‡. Set-up: SW620 colon adenocarcinoma cells that endogenously express PAR2; endogenous in cells; host or cells: SW620 (in A7 the SW620 cells were additionally stably transfected with PAR1).
Target sequence in this assay (P55085 26-397 limits assumed): as the sequence (P55085 26-397) above
In assay [5] the target is T2, PAR2. The experiment in a line: SW620 cell migration toward SLIGRL (Boyden chamber, 18 h). The note with it: 10 μM SLIGRL. The format is cell-based. Set-up: SW620 colon adenocarcinoma cells that endogenously express PAR2; endogenous in cells; host or cells: SW620 (in A7 the SW620 cells were additionally stably transfected with PAR1). The procedure: as §1
Target sequence in this assay (P55085 26-397): as the sequence (P55085 26-397) above
In assay [6] the target is T1, PAR1. The experiment in a line: [3H]-InsP formation in COS7 cells transfected with PAR1. The format is cell-based. Set-up: expressed in transfected cells; host or cells: COS7. Particulars: 1 μM TFLLRN, 30 min. The procedure:
as §1

The subject of assay [7] is mast cell tryptase. Put plainly: Human neutrophil chemotaxis toward mast cell conditioned media (tryptase inhibitor). The format is cell-based. The note with it: 10 mM APC-366; 30 min. The procedure:
(A) Mast cells were treated with 2 mg/mL of mast cell degranulating agent 48/80 or 2% 1-carrageenan/4% kaolin. […] (B) P2pal-18S inhibits human neutrophil chemotaxis (n=6) to mast cell media. Human neutrophils were incubated with […] P2pal-18S, or […] mast cell tryptase inhibitor APC-366 and allowed to migrate 30 min toward CM from mast cells. (C) C57BL/6 mice (n=5) were pretreated with the tryptase inhibitor APC-366 (5 mg/kg, s.c.) or vehicle (20% DMSO) and then challenged with intraplantar injection of 1-carrageenan/kaolin. (D) Mast cell conditioned media (30 μL of 1-carrageenan/kaolin stimulated media) was injected into the hindpaws of C57BL/6 mice treated with 10 mg/kg P2pal-18S or vehicle (n=5). Data represent mean±SEM. #, P=0.07, *, P<0.05 and **, P<0.005. (E) Mast cell-deficient mice have a significant reduction in 1-carrageenan/kaolin induced paw edema (8 h time point, n=4-6) as compared to littermate controls. Mast-cell deficient mice or littermate controls with intact mast cells were treated with P2pal-18S (10 mg/kg, s.c.) or vehicle and hind paws challenged with 1-carrageenan/kaolin irritant. Error bars represent mean±SEM. […]

For assay [8], the target named is T4, mast cell tryptase (Mus musculus, UniProt P21845).
T4 construct: from tissue; host or cells: C57BL/6 mouse, hind paw in vivo
T4 sequence (P21845 32-276): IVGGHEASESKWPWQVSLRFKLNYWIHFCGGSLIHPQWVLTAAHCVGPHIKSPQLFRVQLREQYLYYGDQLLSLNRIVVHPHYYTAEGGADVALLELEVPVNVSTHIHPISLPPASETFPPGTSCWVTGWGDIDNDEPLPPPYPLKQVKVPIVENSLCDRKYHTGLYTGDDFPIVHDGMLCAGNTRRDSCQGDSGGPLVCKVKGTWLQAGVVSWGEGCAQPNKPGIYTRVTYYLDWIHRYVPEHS
The experiment in a line: λ-carrageenan/kaolin-induced mouse paw edema (tryptase inhibitor). The format is in vivo. The note with it: C57BL/6 mice; 5 mg/kg s.c. Here is the method:
(A) Mast cells were treated with 2 mg/mL of mast cell degranulating agent 48/80 or 2% 1-carrageenan/4% kaolin. […] (B) P2pal-18S inhibits human neutrophil chemotaxis (n=6) to mast cell media. Human neutrophils were incubated with […] P2pal-18S, or […] mast cell tryptase inhibitor APC-366 and allowed to migrate 30 min toward CM from mast cells. (C) C57BL/6 mice (n=5) were pretreated with the tryptase inhibitor APC-366 (5 mg/kg, s.c.) or vehicle (20% DMSO) and then challenged with intraplantar injection of 1-carrageenan/kaolin. (D) Mast cell conditioned media (30 μL of 1-carrageenan/kaolin stimulated media) was injected into the hindpaws of C57BL/6 mice treated with 10 mg/kg P2pal-18S or vehicle (n=5). Data represent mean±SEM. #, P=0.07, *, P<0.05 and **, P<0.005. (E) Mast cell-deficient mice have a significant reduction in 1-carrageenan/kaolin induced paw edema (8 h time point, n=4-6) as compared to littermate controls. Mast-cell deficient mice or littermate controls with intact mast cells were treated with P2pal-18S (10 mg/kg, s.c.) or vehicle and hind paws challenged with 1-carrageenan/kaolin irritant. Error bars represent mean±SEM.
To examine whether mast cells and mast cell tryptase were activating PAR2 in the paw edema model in vivo, mice were depleted of mast cells through pretreatment with compound 48/80 (Carvalho M et al. Eur J Pharmacol (2005), 525: 161-169). […]
(Carrageenan injected into the paw causes an acute inflammation.)

Assay [9] addresses T1, PAR1. The experiment in a line: Lung cancer cell line migration toward NIH-3T3 conditioned media (Boyden chamber). The class given is cell-based. The note with it: A549, HOP62, H1299; pepducins in lower well. The arrangement: endogenous in cells; host or cells: A549, HOP62, H1299, H522, H226, HOP92 lung carcinoma lines. The source says: FIG. 11 illustrates PAR expression profile in lung cancer. Lung cancer cell lines (n=7) from the NCI-60 panel were characterized for surface expression of PAR1, PAR2, PAR3, and PAR4 (A) as previously described in Nguyen et al., 2006. (B): PAR mRNA expression profile in patient samples. Quantitative real-time PCR analysis of PAR1 to PAR4 (corrected for actin expression as internal control) and expressed as fold increase over nonmalignant lung tissue. Migration of lung carcinoma cell lines toward fibroblast conditioned media is expressed as cell number ±SD. (C): Silencing of PAR1 expression in A549 and HOP62 cells with shPAR1 or vector control. Surface expression of PAR1 was determined by flow cytometry using SFLLR-Ab. (D): Migration of A549 and HOP62 lung cancer cells toward NIH-3T3 conditioned media supplemented with RWJ-56110 (10 μmol/L) and SCH7979 (50 μmol/L) or vehicle (0.2% dimethyl sulfoxide). Migration of lung cancer cells treated with shPAR1 treatment or appropriate controls toward NIH-3T3 conditioned media. Basal migration toward conditioned media (vehicle treated or vector control) was normalized to 100%. *P<0.05, **P<0.01.
FIG. 12 illustrates that PAR1 is a promigratory factor in lung cancer cells. […] (G): Cell from primary lung tumors or nonmalignant control were pretreated with PAR1 pepducins and migration was determined (*P<0.05, **P<0.01). […]

In the case of `CCCCCCCCCCCCCCCC(=O)NCC(=O)N[C@@H](CC(=O)O)C(=O)N[C@@H](CCC(=O)O)C(=O)N[C@@H](CC(N)=O)C(=O)N[C@@H](CO)C(=O)N[C@@H](CCC(=O)O)C(=O)N[C@@H](CCCCN)C(=O)N[C@@H](CCCCN)C(=O)N[C@@H](CCCNC(=N)N)C(=O)N[C@@H](CCCCN)C(=O)N[C@@H](CCC(N)=O)C(=O)N[C@@H](C)C(=O)N[C@H](C(=O)N[C@@H](CCCCN)C(N)=O)[C@@H](C)CC` [P2pal-14GQ] (Palmitoyl-GDENSEKKRKQAIK-NH2), at PAR1 [1], the “Inhibition of PAR1 calcium flux” value was “selective for PAR2 and not PAR1”. For the same compound, on PAR2 [2] (6 μM pepducin, 1 min pretreatment, against 100 μM SLIGRL), the “Antagonist activity (inhibition of SLIGRL calcium flux, area under the curve)” value amounted to 53%. The “Agonist activity (calcium flux)” value at PAR2 [2] (3-4 μM and 14-15 μM pepducin) was “agonist activity remained insignificant or insubstantial”. In addition, on PAR2 [3], the “Agonist | (%)^†” value turned out to be 3%. The “Inhibition of InsP signaling from PAR4” value on PAR4 was “do not inhibit”. In addition, the “Agonist | (%)^‡” value on PAR2 [4] is given as 2%. In addition, at PAR2 [5], the “Suppression of SW620 migration to SLIGRL” value is recorded as “not as efficacious in suppressing migration of SW620 cells to SLIGRL as compared to P2pal-18S”. In addition, the “Inhibition of InsP signaling from PAR1” value at PAR1 [6] is recorded as “do not inhibit”.
On to `NC(=O)[C@@H]1CCCN1C(=O)[C@H](CCCN=C(N)N)NC(=O)c1ccc2ccccc2c1O` [APC-366], for which, in the assay with mast cell tryptase [7], the “Inhibition of chemotactic migration toward tryptase-containing mast cell media” value is on record as “completely inhibited”. Moreover, at mast cell tryptase [8], the “Protection in λ-carrageenan/kaolin-induced paw edema” value is 40%.
As to “P1pal-19EE: negative control PAR1 i3 pepducin, 19 residues, S309 to E and A311 to E; SEQ ID NO:27 (Palmitoyl-ECESSSAEANRSKKERELF-NH2)”, the “Suppression of migration of PAR1-expressing adenocarcinomas” value with PAR1 [9] is “no effect on migration”.
